Here are results for 1 compound from BindingDB's records for doi:10.1021/jm970140s (Merck Research Laboratories, 1997).

Structures are written as SMILES.

The experiment concerns the target Vitamin K-dependent protein C (Homo sapiens) (UniProt P04070). Kind of experiment: Inhibitory activity against human serine protease (act protein C )(7.5*10e6*).

Chain of Vitamin K-dependent protein C (Homo sapiens) (P04070 whole entry, looked up): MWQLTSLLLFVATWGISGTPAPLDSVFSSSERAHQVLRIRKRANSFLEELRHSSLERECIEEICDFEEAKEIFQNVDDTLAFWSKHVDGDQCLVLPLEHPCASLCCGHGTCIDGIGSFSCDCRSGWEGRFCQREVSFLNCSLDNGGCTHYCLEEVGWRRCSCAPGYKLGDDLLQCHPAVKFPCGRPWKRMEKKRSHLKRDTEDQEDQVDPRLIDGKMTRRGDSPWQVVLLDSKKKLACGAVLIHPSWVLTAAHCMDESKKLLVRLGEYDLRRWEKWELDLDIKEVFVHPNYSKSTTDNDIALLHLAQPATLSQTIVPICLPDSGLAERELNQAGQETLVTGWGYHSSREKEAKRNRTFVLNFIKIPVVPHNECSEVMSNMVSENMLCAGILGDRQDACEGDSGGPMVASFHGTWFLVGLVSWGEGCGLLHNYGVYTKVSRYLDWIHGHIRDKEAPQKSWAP

A word on the Ki: it is a measure of affinity in units of concentration, obtained from inhibition or displacement. For the compound `NC1CCC(CNC(=O)[C@@H]2CCCN2C(=O)[C@H](N)C(C2CCCCC2)C2CCCCC2)CC1` (stereo partly specified) [1-(2-Amino-3,3-dicyclohexyl-propionyl)-pyrrolidine-2-carboxylic acid (4-amino-cyclohexylmethyl)-amide], affinity was put at a Ki of 417 µM.
